Results on five molecules are retold here after patent publication US6342633B1, “O-benzyl oxime ether derivatives and their use as pesticides” (Bayer Aktiengesellschaft, priority 1993, dated 2002).

The term melting point denotes the temperature of the solid-liquid transition. For the molecule `[H]/N=C(OC)/C(=N/OC)c1ccccc1CON=C(C)c1ccc(Cl)cc1` [Compound 1.13], the melting point fell in the range of 73 to 75 °C.

On to `CNC(=S)/C(=N/OC)c1ccccc1CO/N=C(\C)c1cccc(C(F)(F)F)c1` [Compound 4.51, N-methyl-2-[2-(methyl(3-trifluoromethylphenyl)oximinomethyl)phenyl]-2-methoximinothioacetamide], for which the melting point fell in the range of 100 to 106 °C.

As for `CO/N=C(N)/C(=N/OC)c1ccccc1CO/N=C(\C)c1ccc(Cl)cc1` [Compound 3.101], the melting point was 76 to 78 °C.

`C/N=C(OC)/C(=N/OC)c1ccccc1CO/N=C(\C)c1ccc(Cl)cc1` [Example H-4, N,O-dimethyl-2-[2-(methyl(4-chlorophenyl)oximinomethyl)phenyl]2-methoximinoacetimidate] came in with a melting point of 79 to 80 °C.

Consider `CNC(=S)/C(=N/OC)c1ccccc1CON=C(C)c1ccc(Cl)cc1` [Compound 4.10], for which the melting point fell in the range of 88 to 89 °C.
